Patent US9995734B2, “Human T cell line assay for evaluating the immunologic identity of glatiramer acetate preparations” (Mylan Inc., priority 2013, dated 2018)

Test system: Donor 3 COP T-Cell Lines
Assay: ATP proliferation assay (CellTiter Glo), Donor 3 COP T-cell lines, incl. reactivity to non-canonical GA peptides
Type: cell-based, human
Conditions: for Reactivity (proliferation), Mean: Day 54 of culture

## glatiramer acetate [GMA]
165-D2C, 165-C7C, 165-C4C, Day 39, three concentrations (Table 24)
  response in ATP proliferation assay: responded comparably
T-cell line 165-B6C, 1 μg/mL antigen, No Antigen 2358
  Reactivity (proliferation), Mean: 3939 RLU
T-cell line 165-B6C, 1 μg/mL, Day 46, after 3 days
  Mean, ATP proliferation assay: 9925 RLU
T-cell line 165-B6C, 3 μg/mL antigen, No Antigen 2358
  Reactivity (proliferation), Mean: 19344 RLU
T-cell line 165-B6C, 3 μg/mL, Day 46, after 3 days
  Mean, ATP proliferation assay: 38105 RLU
T-cell line 165-B6C, 10 μg/mL antigen, No Antigen 2358
  Reactivity (proliferation), Mean: 29012 RLU
T-cell line 165-B6C, 10 μg/mL, Day 46, after 3 days
  Mean, ATP proliferation assay: 25839 RLU
T-cell line 165-B6C, 100 μg/mL antigen, No Antigen 2358
  Reactivity (proliferation), Mean: 9856 RLU
T-cell line 165-B6C, Day 32, 10 μg/mL
  Mean, ATP proliferation assay: 1058 RLU
T-cell line 165-B10C, 1 μg/mL antigen, No Antigen 2234
  Reactivity (proliferation), Mean: 1942 RLU
T-cell line 165-B10C, 1 μg/mL, Day 46, after 3 days
  Mean, ATP proliferation assay: 5592 RLU
T-cell line 165-B10C, 3 μg/mL antigen, No Antigen 2234
  Reactivity (proliferation), Mean: 2658 RLU
T-cell line 165-B10C, 3 μg/mL, Day 46, after 3 days
  Mean, ATP proliferation assay: 13012 RLU
T-cell line 165-B10C, 10 μg/mL antigen, No Antigen 2234
  Reactivity (proliferation), Mean: 5854 RLU
T-cell line 165-B10C, 10 μg/mL, Day 46, after 3 days
  Mean, ATP proliferation assay: 19866 RLU
T-cell line 165-B10C, 100 μg/mL antigen, No Antigen 2234
  Reactivity (proliferation), Mean: 6380 RLU
T-cell line 165-C4C, 1 μg/mL antigen, Day 66 of culture, 0 μg/mL 1881
  Proliferation (luminescent ATP assay), Mean: 2668
T-cell line 165-C4C, 1 μg/mL, Day 39
  Mean, ATP proliferation assay: 9367
T-cell line 165-C4C, 3 μg/mL antigen, Day 66 of culture, 0 μg/mL 1881
  Proliferation (luminescent ATP assay), Mean: 16108
T-cell line 165-C4C, 3 μg/mL, Day 39
  Mean, ATP proliferation assay: 26279
T-cell line 165-C4C, 10 μg/mL antigen, Day 66 of culture, 0 μg/mL 1881
  Proliferation (luminescent ATP assay), Mean: 88509
T-cell line 165-C4C, 10 μg/mL, Day 39
  Mean, ATP proliferation assay: 31014
T-cell line 165-C7C, 1 μg/mL, Day 39
  Mean, ATP proliferation assay: 3307
T-cell line 165-C7C, 1.25 μg/mL antigen, autologous B-LCL
  Proliferation (luminescent ATP assay), Mean: 610 RLU
T-cell line 165-C7C, 2.5 μg/mL antigen, autologous B-LCL
  Proliferation (luminescent ATP assay), Mean: 2699 RLU
T-cell line 165-C7C, 3 μg/mL, Day 39
  Mean, ATP proliferation assay: 12832
T-cell line 165-C7C, 5 μg/mL antigen, autologous B-LCL
  Proliferation (luminescent ATP assay), Mean: 22588 RLU
T-cell line 165-C7C, 10 μg/mL antigen, autologous B-LCL
  Proliferation (luminescent ATP assay), Mean: 24029 RLU
T-cell line 165-C7C, 10 μg/mL, Day 39
  Mean, ATP proliferation assay: 42739
T-cell line 165-D2C, 1 μg/mL, Day 39
  Mean, ATP proliferation assay: 3881
T-cell line 165-D2C, 3 μg/mL, Day 39
  Mean, ATP proliferation assay: 7503
T-cell line 165-D2C, 10 μg/mL, Day 39
  Mean, ATP proliferation assay: 13253
T-cell line 165-D3C, 1 μg/mL antigen, No Antigen 8319
  Reactivity (proliferation), Mean: 24131 RLU
T-cell line 165-D3C, 1 μg/mL, Day 46, after 3 days
  Mean, ATP proliferation assay: 61535 RLU
T-cell line 165-D3C, 3 μg/mL antigen, No Antigen 8319
  Reactivity (proliferation), Mean: 58814 RLU
T-cell line 165-D3C, 3 μg/mL, Day 46, after 3 days
  Mean, ATP proliferation assay: 80112 RLU
T-cell line 165-D3C, 10 μg/mL antigen, No Antigen 8319
  Reactivity (proliferation), Mean: 57024 RLU
T-cell line 165-D3C, 10 μg/mL, Day 46, after 3 days
  Mean, ATP proliferation assay: 107772 RLU
T-cell line 165-D3C, 100 μg/mL antigen, No Antigen 8319
  Reactivity (proliferation), Mean: 14205 RLU
T-cell line 165-D3C, Day 32, 10 μg/mL
  Mean, ATP proliferation assay: 3436 RLU
T-cell line 165-D11C, 1 μg/mL antigen, No Antigen 4571
  Reactivity (proliferation), Mean: 3636 RLU
T-cell line 165-D11C, 1 μg/mL, Day 46, after 3 days
  Mean, ATP proliferation assay: 15655 RLU
T-cell line 165-D11C, 3 μg/mL antigen, No Antigen 4571
  Reactivity (proliferation), Mean: 6578 RLU
T-cell line 165-D11C, 3 μg/mL, Day 46, after 3 days
  Mean, ATP proliferation assay: 17777 RLU
T-cell line 165-D11C, 10 μg/mL antigen, No Antigen 4571
  Reactivity (proliferation), Mean: 16338 RLU
